# Where two headings read alike, the source gives them in different places.
# Tests used:
# Assay in all cases: Methyltransferase selectivity assay (filter-based, nucleosome substrate)
# Format in all cases: biochemical
# NSD1 = target: T1, NSD1 (Homo sapiens, UniProt Q96L73)
# T1 construct: purchased Structural Genomics Consortium (SGC Toronto) in-house methyltransferase panel
# Experimental: (§1) Selectivity against methyltransferases were determined as described previously. Details of the assays are described in the supplementary methods.
# (§2) Methyltransferase selectivity assay1
# (§3) The effect of chemical probes and negative controls on the methyltransferase activities of protein, DNA and RNA methyltransferases was tested by radiometric assays using 3H-SAM. […]
# (§4) The CPM in the absence of compound or enzyme was defined as 100% activity and background (0%), respectively, for each dataset. […]
# (§5) For proteins which were tested with nucleosome as substrate such as DOT1L, NSD1, NSD2, NSD3, and ASH1L, or unbiotinylated Poly(2′-deoxyinosinic-2′-deoxycytidylic acid) (Cat# 81349-500UG, Sigma Aldrich) such as DNMT3A/3L, and DNMT3B/3L, a filter-based assay was used. In this assay, a trichloroacetic acid (TCA) protein precipitation protocol was employed. A 10 µL reaction mixture was incubated at 23°C for 1 h, followed by addition of 50 µL of 10% TCA. The mixture was transferred to filter plates (Millipore, Billerica, MA, USA) that were centrifuged at 2000 rpm (Allegra X-15R; Beckman Coulter, Brea, CA, USA) for 2 min. Samples were washed twice with 10% TCA and once with ethanol (180 µL), and centrifuged. After drying, 100 µL MicroScint-O (Perkin Elmer) was added to each well and the plates were centrifuged to remove the liquid. A 70 µL volume of MicroScint-O was added and the CPM was measured with a TopCount plate reader.
# ASH1L = target: T2, ASH1L (Homo sapiens, UniProt Q9NR48)
# T2 construct: purchased Structural Genomics Consortium (SGC Toronto) in-house methyltransferase panel
# Experimental: as §1, §2, §3, §4, §5
# NSD3 = target: T3, NSD3 (Homo sapiens, UniProt Q9BZ95); details: for activity at 1 µM: 1µM compound; for Activity % / activity at 10 µM: 10µM compound; for Activity %: Exp1, Exp2, 10 µM
# T3 construct: purchased Structural Genomics Consortium (SGC Toronto) in-house methyltransferase panel
# T3 sequence (Q9BZ95 1-1437): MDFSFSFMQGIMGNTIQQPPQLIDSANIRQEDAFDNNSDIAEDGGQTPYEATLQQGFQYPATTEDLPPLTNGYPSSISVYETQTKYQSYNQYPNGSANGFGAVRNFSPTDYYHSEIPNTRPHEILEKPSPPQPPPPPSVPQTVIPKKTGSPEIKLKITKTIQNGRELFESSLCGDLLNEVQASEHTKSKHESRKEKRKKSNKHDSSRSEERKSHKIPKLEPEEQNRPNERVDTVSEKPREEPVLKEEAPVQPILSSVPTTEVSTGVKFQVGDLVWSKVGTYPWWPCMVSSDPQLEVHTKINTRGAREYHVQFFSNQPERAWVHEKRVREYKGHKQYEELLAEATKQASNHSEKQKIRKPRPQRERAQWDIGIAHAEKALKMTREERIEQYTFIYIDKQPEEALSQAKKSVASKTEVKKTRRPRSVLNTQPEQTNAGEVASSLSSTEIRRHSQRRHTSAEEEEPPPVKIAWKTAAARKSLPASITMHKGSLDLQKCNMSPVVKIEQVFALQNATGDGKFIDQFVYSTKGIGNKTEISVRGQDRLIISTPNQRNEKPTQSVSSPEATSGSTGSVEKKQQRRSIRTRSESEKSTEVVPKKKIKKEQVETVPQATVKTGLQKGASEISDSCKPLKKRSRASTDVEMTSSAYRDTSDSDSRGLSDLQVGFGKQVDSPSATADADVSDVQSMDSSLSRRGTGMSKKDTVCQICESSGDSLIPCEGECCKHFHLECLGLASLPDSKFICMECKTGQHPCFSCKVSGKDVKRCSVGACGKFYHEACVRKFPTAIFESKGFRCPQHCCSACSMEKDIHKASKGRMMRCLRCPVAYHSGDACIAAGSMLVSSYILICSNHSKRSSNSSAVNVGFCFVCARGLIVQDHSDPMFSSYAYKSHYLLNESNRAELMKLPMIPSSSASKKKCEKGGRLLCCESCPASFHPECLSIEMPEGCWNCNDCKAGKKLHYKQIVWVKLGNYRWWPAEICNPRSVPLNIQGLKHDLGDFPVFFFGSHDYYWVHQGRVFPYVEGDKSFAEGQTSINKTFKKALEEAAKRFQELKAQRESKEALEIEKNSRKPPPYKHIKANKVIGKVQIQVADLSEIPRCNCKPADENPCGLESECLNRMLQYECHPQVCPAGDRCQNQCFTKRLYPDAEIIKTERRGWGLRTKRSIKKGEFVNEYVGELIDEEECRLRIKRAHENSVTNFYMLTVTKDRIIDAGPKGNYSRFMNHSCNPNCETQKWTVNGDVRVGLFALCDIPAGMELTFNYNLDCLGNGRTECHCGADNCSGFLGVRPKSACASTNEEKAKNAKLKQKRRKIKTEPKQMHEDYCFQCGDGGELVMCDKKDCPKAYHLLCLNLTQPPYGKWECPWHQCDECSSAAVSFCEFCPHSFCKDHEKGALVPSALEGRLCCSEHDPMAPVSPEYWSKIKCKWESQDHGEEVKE
# Experimental: as §1, §2, §3, §4, §5
# DOT1L = target: T4, DOT1L (Homo sapiens, UniProt Q8TEK3)
# T4 construct: purchased Structural Genomics Consortium (SGC Toronto) in-house methyltransferase panel
# Experimental: as §1, §2, §3, §4, §5
# [1] = 1µM compound, Exp1, Exp2, read-out: Activity %
# [2] = 10µM compound, Exp1, Exp2, 10 µM
# [3] = 10µM compound, Exp1, Exp2, read-out: Activity %
# [4] = Exp1, Exp2, read-out: Activity %
# T4 sequence (Q8TEK3 whole entry): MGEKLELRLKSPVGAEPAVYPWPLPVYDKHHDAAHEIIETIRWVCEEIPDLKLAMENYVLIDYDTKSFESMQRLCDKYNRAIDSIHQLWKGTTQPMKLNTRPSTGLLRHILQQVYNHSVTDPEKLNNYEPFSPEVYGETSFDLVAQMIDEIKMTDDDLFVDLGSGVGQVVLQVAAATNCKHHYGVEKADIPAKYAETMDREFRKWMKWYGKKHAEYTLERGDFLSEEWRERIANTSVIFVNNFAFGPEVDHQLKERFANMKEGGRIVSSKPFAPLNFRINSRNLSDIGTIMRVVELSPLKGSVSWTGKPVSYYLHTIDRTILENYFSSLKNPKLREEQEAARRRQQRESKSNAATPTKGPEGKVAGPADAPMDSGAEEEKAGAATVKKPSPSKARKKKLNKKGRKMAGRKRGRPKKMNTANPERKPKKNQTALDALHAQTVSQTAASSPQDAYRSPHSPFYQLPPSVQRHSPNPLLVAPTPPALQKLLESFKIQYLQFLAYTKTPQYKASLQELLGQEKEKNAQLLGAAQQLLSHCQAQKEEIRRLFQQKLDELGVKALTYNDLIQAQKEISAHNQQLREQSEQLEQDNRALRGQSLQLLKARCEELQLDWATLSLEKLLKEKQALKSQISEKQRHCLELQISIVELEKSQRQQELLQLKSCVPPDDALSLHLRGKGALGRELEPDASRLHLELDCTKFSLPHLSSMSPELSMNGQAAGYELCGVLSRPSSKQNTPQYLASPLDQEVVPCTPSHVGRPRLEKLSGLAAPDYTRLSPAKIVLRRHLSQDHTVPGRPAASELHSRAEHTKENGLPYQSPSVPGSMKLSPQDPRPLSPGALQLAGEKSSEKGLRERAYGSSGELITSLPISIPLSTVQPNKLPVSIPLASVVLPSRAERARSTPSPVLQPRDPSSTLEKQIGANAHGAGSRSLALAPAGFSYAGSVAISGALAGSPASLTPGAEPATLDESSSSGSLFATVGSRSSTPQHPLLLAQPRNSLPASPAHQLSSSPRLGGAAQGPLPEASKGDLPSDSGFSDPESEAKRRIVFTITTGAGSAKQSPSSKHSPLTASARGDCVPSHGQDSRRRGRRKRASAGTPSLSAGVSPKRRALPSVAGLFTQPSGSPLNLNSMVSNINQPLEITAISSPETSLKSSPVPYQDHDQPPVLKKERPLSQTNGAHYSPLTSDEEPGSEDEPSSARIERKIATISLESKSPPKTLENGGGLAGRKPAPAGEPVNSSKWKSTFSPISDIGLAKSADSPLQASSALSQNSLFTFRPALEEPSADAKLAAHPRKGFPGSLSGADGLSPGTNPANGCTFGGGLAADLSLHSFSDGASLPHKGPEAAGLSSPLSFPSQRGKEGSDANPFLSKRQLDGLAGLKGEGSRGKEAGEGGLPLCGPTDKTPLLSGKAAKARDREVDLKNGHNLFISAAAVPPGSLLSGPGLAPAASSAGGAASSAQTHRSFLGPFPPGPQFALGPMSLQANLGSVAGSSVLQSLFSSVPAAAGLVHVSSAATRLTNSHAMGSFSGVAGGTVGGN
# T1 sequence (Q96L73 whole entry): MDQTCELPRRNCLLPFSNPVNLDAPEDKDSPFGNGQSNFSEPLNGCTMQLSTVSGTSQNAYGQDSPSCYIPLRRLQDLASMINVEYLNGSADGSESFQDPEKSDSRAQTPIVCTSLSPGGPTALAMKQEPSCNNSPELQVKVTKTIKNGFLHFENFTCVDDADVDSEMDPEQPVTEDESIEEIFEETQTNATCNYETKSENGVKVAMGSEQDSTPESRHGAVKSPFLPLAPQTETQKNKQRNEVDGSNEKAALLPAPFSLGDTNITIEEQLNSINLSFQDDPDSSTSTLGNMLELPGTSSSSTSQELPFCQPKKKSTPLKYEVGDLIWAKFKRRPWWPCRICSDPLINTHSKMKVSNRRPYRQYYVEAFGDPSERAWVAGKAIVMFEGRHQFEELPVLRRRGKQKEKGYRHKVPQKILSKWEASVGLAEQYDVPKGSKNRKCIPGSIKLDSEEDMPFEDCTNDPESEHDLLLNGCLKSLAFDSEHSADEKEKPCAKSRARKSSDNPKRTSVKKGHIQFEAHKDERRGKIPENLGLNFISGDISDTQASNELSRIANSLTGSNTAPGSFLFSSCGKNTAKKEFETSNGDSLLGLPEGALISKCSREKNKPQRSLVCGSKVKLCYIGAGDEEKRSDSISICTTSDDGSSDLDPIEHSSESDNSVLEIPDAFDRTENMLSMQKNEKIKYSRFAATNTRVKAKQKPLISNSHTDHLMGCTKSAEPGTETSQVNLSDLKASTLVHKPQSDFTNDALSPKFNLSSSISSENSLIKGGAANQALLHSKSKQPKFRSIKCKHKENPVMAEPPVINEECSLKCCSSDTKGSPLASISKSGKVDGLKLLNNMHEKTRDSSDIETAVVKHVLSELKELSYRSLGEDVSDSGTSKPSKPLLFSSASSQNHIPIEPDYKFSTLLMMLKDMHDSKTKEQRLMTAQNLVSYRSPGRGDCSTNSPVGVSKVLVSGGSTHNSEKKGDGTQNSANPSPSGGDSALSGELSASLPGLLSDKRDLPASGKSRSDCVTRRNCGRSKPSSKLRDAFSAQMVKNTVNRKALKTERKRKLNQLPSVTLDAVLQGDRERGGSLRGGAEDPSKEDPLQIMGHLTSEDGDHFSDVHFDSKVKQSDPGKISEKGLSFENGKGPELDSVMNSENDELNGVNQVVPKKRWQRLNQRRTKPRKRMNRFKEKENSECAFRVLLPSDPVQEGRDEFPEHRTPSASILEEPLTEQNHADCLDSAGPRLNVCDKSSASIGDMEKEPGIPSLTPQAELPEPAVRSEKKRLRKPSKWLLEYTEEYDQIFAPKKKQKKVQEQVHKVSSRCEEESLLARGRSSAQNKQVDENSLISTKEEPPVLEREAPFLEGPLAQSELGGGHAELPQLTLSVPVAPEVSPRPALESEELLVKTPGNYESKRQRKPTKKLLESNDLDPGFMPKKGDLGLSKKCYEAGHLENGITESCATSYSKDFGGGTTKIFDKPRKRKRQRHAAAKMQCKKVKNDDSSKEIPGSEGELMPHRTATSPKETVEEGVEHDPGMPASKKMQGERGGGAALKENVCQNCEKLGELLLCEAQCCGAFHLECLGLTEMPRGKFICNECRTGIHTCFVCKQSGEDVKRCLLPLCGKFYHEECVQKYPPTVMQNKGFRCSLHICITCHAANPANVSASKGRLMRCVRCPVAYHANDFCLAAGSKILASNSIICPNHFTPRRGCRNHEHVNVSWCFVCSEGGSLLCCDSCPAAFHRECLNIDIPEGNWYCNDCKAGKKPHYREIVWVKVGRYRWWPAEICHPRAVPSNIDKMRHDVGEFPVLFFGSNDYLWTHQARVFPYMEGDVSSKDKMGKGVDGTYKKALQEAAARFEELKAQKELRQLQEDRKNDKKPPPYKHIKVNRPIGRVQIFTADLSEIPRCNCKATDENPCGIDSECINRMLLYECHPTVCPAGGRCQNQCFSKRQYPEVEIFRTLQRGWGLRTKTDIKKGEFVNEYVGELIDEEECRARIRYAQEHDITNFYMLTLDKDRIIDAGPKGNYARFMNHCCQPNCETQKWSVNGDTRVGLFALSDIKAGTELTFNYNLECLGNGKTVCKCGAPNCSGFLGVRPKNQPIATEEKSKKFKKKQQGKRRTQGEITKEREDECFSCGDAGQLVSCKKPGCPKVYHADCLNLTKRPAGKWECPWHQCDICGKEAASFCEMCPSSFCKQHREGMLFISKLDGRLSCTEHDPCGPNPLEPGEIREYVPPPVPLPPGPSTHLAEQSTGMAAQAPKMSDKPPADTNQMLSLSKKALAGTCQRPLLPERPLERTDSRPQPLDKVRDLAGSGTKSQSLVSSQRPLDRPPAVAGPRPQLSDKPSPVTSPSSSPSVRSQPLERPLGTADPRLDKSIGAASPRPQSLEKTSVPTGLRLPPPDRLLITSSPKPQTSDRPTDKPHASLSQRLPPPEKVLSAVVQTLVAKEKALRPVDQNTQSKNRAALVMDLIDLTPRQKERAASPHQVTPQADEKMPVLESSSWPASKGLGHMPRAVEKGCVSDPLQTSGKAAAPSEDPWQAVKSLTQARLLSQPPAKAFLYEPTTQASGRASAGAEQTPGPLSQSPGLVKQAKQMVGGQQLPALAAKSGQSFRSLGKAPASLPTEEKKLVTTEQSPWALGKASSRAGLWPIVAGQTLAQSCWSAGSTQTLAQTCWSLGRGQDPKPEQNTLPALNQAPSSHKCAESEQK
smiles,measurement,setting,value
COc1cc(OC)cc(-c2noc(N3CCN(C)C4(CCN(c5ccnc(C)c5)CC4)C3)n2)c1 [MRK-740],Activity %,"NSD1; 1µM compound, Exp1, Exp2, 1 µM",97%
same,activity at 1 µM,NSD1; [1],96%
same,Activity %,NSD1; [2],98%
same,activity at 10 µM,NSD1; [3],106%
same,Activity %,"ASH1L; 1µM compound, Exp1, Exp2, 1 µM",102%
same,activity at 1 µM,ASH1L; [1],113%
same,activity at 10 µM,ASH1L; [3],93%
same,activity at 1 µM,NSD3; [4],89%
same,Activity %,NSD3,99%
same,activity at 10 µM,NSD3; [4],95%
same,Activity %,"DOT1L; 1µM compound, Exp1, Exp2, 1 µM",100%
same,activity at 1 µM,DOT1L; [1],98%
same,activity at 10 µM,DOT1L; [3],97%
COc1cc(OC)cc(-c2noc(N3CCN(C)C4(CCN(c5ccccc5)CC4)C3)n2)c1 [MRK-740 -NC],activity at 1 µM,"NSD1; 1µM compound, Exp1, Exp2",103%
same,activity at 10 µM,"NSD1; 10µM compound, Exp1, Exp2",100%
same,Activity %,NSD1; [2],99%
same,activity at 1 µM,"ASH1L; 1µM compound, Exp1, Exp2",100%
same,activity at 10 µM,"ASH1L; 10µM compound, Exp1, Exp2",99%
same,Activity %,ASH1L; [2],98%
same,activity at 1 µM,"NSD3; Exp1, Exp2",97%
same,activity at 10 µM,"NSD3; Exp1, Exp2",95%
same,Activity %,NSD3,93%
same,activity at 1 µM,"DOT1L; 1µM compound, Exp1, Exp2",104%
same,Activity %,"DOT1L; 1µM compound, Exp1, Exp2, 1 µM",102%
same,activity at 10 µM,"DOT1L; 10µM compound, Exp1, Exp2",100%
same,Activity %,DOT1L; [2],99%

# — article PMC6917776, “Discovery of a chemical probe for PRDM9” (Nature Communications, 2019)
